Biological target: rhGCPII (extracellular part of human GCPII, amino acids 44–750) (Homo sapiens, UniProt Q04609)
Assay: Fluorescence polarization
Type: binding

Sequence of rhGCPII (extracellular part of human GCPII, amino acids 44–750) (Q04609 44-750): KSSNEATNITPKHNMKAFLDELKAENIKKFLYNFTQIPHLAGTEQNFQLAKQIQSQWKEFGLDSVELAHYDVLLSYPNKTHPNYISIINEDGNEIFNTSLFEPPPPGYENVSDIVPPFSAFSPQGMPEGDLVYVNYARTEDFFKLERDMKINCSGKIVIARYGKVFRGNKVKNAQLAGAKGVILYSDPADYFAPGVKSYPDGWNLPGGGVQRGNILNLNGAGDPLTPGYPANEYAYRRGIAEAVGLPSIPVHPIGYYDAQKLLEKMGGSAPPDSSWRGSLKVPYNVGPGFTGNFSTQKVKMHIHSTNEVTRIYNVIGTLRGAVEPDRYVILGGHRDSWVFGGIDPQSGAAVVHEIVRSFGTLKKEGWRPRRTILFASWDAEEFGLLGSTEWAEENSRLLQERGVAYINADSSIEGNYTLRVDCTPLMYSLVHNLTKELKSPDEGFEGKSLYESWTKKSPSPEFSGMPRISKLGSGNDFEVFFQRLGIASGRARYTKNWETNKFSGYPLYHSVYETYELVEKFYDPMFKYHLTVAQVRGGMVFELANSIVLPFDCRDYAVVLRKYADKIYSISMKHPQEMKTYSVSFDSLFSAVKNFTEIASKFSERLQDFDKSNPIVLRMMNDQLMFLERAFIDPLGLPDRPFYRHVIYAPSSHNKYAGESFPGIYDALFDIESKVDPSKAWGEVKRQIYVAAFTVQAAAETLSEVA

Row | Compound | IC50
1 | N[C@@H](Cn1oc(=O)[nH]c1=O)C(=O)O [quisqualate] | 16.7 µM
2 | N[C@@H](CCC(=O)O)C(=O)O [glutamic acid] | 870 µM

Source: PMC4112551 (Journal of biomolecular screening, 2012)
